Counter-ions that a name gives are not always drawn.
Assay: Comparative stability, Formulation 3 (based on Evomela, SBE6.5-β-CD)
Assay type: physicochemical
Description: The stability of Compound (1c) either as the HCl salt or as the free base was compared to the stability of melphalan HCl and/or bendamustine HCl in various pharmaceutical formulations and at different concentrations and at temperatures of 0° C. or 25° C.
The stability of the compounds in the pharmaceutical formulations was determined at concentrations within the range from 0.4 mg/mL to 0.5 mg/mL, from 0.9 mg/mL to 1.1 mg/mL, and from 1.8 mg/mL to 2.1 mg/mL.
The amount of the active pharmaceutical ingredient (API) (Compound (1c), melphalan or bendamustine) in the pharmaceutical formulations at different times during storage was determined using HPLC/UV as described in detail for Example 4 and Example 5.
Evomela® is an injectable formulation of melphalan hydrochloride, 4-[bis(2-chloroethyl)amino]-L-phenylalanine hydrochloride, approved by the FDA. Evomela® is supplied as a sterile white to off-white lyophilized powder in a single-dose vial for intravenous use. Each vial containing 50 mg melphalan free base equivalent to 56 mg melphalan hydrochloride and 2,700 mg betadex sulfobutyl ether (SBE6.5-β-CD; sulfobutyl ether β-cyclodextrin sodium) sodium, NF. Normal saline solution (0.9% Sodium Chloride Injection, USP) (8.6 mL as directed) is used to reconstitute Evomela® to a total of 10 mL having a 5 mg/mL nominal concentration of melphalan. The required volume of Evomela® needed for a patient dose is withdrawn from the vial(s) and added to the appropriate volume of 0.9% Sodium Chloride Injection, USP, to a final nominal concentration of 0.45 mg/mL of melphalan. This solution is then infused via an injection port or central venous catheter.
A series of 12 mL glass vials each containing 5.5 mg (0.0165 mmol of Compound (1c) free base and 270 mg of SBE6.5-β-CD, Captisol®) were prepared as described in Example 4.
The cyclodextrin derivative/Compound (1c) free base guest-host inclusion complex was reconstituted by dissolving the guest-host inclusion complex in 0.86 mL of 0.9% saline to provide 1.0 mL of a solution having a nominal concentration of 5.5 mg/mL of Compound (1c) free base.
A 1.0 mL aliquot of this solution was diluted with 10.0 mL of 0.9% saline, and the pH adjusted with 5 μL of a saturated aqueous NaHCO3 solution to provide 11.0 mL of a clear, colorless solution having a nominal concentration of 0.50 mg/mL of Compound (1c) from Compound (1c) free base and a pH from 5.8 to 6.1.
A 1.0 mL aliquot of this solution was diluted with 4.5 mL of 0.9% saline, and the pH adjusted with 5 μL of a saturated aqueous NaHCO3 solution to provide 5.5 mL of a clear, colorless solution having a nominal concentration of 1.0 mg/mL of Compound (1c) from Compound (1c) free base and a pH of about 6.1.
A 1.0 mL aliquot of this solution was diluted with 1.75 mL of 0.9% saline, and the pH adjusted with 5 μL of a saturated aqueous NaHCO3 solution to provide 2.75 mL of a clear, colorless solution having a nominal concentration of 2.0 mg/mL of Compound (1c) from Compound (1c) free base and a pH of about 6.1.
A series of 12 mL glass vials each containing 6.1 mg (0.0165 mmol of Compound (1c) mono-hydrochloride salt (corresponding to 5.5 mg of Compound (1c) free base) and 270 mg of SBE6.5-β-CD, Captisol®) were prepared as described in Example 5.
The cyclodextrin derivative/Compound (1c) mono-HCl salt guest-host inclusion complex was reconstituted by dissolving the guest-host inclusion complex in 0.86 mL of 0.9% saline to provide 1.0 mL of a solution having a nominal concentration of 6.1 mg/mL of Compound (1c) mono-HCl salt (corresponding to a nominal concentration of 5.5 mg/mL of the Compound (1c) free base).
A 0.5 mL aliquot of this solution was diluted with 5.0 mL of 0.9% saline, and the pH adjusted with 5 μL of a saturated aqueous NaHCO3 solution to provide 5.5 mL of a clear, colorless solution having a nominal concentration of 0.50 mg/mL of Compound (1c) from Compound (1c) mono-hydrochloride and a pH from 5.3 to 5.5. […]

[1] = Formulation 3, 0° C., 0.5 hours, 0.4-0.5 mg/mL, pH 5.8-6.1 (melphalan), pH 5-6 (Compound (1c)•HCl)
[2] = Formulation 3, 0° C., 2.0 hours, 0.4-0.5 mg/mL, pH 5.8-6.1 (melphalan), pH 5-6 (Compound (1c)•HCl)

## Cc1ccc(N(CCCl)CCCl)cc1C[C@H](N)CC(=O)O [Compound (1c)•HCl, (S)-3-amino-4-(5-(bis(2-chloroethyl)amino)-2-methylphenyl) butanoic acid mono hydrochloride salt]
[1]
  % API: 97%
Formulation 3, 0° C., 0.5 hours, 0.9-1.1 mg/mL, pH 5-6
  % API: 97%
Formulation 3, 0° C., 0.5 hours, 1.8-2.1 mg/mL, pH 5-6
  % API: 100%
[2]
  % API: 97%
Formulation 3, 0° C., 2.0 hours, 0.9-1.1 mg/mL, pH 5-6
  % API: 91%
Formulation 3, 0° C., 2.0 hours, 1.8-2.1 mg/mL, pH 5-6
  % API: 99%
Formulation 3, 25° C., 0.5 hours, 0.4-0.5 mg/mL, pH 5.8-6.1 (melphalan), pH 5-6 (Compound (1c)•HCl), mono hydrochloride salt
  % API: 97%
Formulation 3, 25° C., 0.5 hours, 0.9-1.1 mg/mL, pH 5-6 (Compound (1c)•HCl), mono hydrochloride salt
  % API: 97%
Formulation 3, 25° C., 0.5 hours, 1.8-2.1 mg/mL, pH 5-6 (Compound (1c)•HCl)
  % API: 100%
Formulation 3, 25° C., 2.0 hours, 0.4-0.5 mg/mL, pH 5.8-6.1 (melphalan), pH 5-6 (Compound (1c)•HCl), mono hydrochloride salt
  % API: 97%
Formulation 3, 25° C., 2.0 hours, 0.9-1.1 mg/mL, pH 5-6 (Compound (1c)•HCl), mono hydrochloride salt
  % API: 91%
Formulation 3, 25° C., 2.0 hours, 1.8-2.1 mg/mL, pH 5-6 (Compound (1c)•HCl), mono hydrochloride salt
  % API: 99%

## Cl.N[C@@H](Cc1ccc(N(CCCl)CCCl)cc1)C(=O)O [Melphalan•HCl, 4-[bis(2-chloroethyl)amino]-L-phenylalanine hydrochloride, reference compound]
[1]
  % API: 97%
[2]
  % API: 92%
Formulation 3, 25° C., 0.5 hours, 0.4-0.5 mg/mL, pH 5.8-6.1 (melphalan), pH 5-6 (Compound (1c)•HCl)
  % API: 97%
Formulation 3, 25° C., 2.0 hours, 0.4-0.5 mg/mL, pH 5.8-6.1 (melphalan), pH 5-6 (Compound (1c)•HCl)
  % API: 92%
